How the values were obtained:
[1] = molecular target: T1, HDAC6 human recombinant (Homo sapiens, UniProt Q9UBN7); assay: HDAC6 enzyme activity inhibition (fluorimetric, in vitro); format: biochemical; conditions: 37° C., 60 minutes; tested at 0.1, 1, 10, 100 and 1000 nM
T1 construct: purchased Calbiochem 382180
T1 sequence (Q9UBN7 1-1215): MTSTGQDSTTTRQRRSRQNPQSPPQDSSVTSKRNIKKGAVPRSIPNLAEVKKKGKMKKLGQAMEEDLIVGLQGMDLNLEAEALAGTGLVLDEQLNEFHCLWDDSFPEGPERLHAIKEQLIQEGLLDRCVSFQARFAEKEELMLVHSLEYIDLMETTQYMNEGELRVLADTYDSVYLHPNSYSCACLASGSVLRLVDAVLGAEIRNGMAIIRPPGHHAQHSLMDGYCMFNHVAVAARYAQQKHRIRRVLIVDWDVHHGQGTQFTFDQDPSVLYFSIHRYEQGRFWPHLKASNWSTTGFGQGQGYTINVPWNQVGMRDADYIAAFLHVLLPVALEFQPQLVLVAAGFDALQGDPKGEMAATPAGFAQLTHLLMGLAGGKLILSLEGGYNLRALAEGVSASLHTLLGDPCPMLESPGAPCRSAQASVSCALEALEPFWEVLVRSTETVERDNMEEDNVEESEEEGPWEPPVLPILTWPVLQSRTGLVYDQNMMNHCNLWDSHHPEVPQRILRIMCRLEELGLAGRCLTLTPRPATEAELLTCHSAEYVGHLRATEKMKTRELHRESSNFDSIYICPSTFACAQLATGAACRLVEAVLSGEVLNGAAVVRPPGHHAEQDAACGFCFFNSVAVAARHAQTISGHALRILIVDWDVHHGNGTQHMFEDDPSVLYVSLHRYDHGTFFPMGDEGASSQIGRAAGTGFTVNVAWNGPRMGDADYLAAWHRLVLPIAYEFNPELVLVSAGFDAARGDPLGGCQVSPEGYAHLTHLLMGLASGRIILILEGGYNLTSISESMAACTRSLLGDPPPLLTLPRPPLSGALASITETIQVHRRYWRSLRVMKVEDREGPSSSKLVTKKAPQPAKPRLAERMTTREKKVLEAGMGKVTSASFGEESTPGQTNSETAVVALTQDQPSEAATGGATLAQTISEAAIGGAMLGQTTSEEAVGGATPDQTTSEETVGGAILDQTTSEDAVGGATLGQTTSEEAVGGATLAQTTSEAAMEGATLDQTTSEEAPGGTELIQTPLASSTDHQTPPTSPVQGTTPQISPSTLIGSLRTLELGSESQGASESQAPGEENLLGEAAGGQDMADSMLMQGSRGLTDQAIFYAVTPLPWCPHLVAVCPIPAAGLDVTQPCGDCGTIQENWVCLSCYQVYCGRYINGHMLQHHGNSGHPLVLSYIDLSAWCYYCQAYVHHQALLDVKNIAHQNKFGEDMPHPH
Method: (§1) 1. Experiment on Activities in HDAC Enzymes (HDAC1 and HDAC6)
(§2) Assays were performed using a HDAC1 fluorimetric drug discovery assay kit (Enzolifesciences: BML-AK511) and a HDAC6 human recombinant (Calbiochem: 382180). The assay mixture of the kit was treated with each of the compounds of the Examples at concentrations 100, 1000 and 10000 nM for HDAC1 assay and 0.1, 1, 10, 100 and 1000 nM for HDAC6 assay. The treated assay mixture was allowed to react at 37° C. for 60 minutes, and then was treated with a developer and allowed to stand at 37° C. for 30 minutes, followed by quantification of the fluorescence. In Table 17, lower HDAC6 values (μM) indicate higher HDAC6 inhibitory activities of the compounds. Also, because selective HDAC6 inhibitors should not inhibit HDAC1 (μM), higher HDAC1 values indicate higher HDAC6 selectivity of the compounds.

[2] = molecular target: T2, HDAC1 (Homo sapiens, UniProt Q13547); assay: HDAC1 enzyme activity inhibition (HDAC1 fluorimetric drug discovery assay kit); format: biochemical; conditions: 37° C., 60 minutes; tested at 100, 1000 and 10000 nM
T2 construct: purchased Enzolifesciences BML-AK511
Method: as §1, §2

T2 sequence (Q13547 whole entry): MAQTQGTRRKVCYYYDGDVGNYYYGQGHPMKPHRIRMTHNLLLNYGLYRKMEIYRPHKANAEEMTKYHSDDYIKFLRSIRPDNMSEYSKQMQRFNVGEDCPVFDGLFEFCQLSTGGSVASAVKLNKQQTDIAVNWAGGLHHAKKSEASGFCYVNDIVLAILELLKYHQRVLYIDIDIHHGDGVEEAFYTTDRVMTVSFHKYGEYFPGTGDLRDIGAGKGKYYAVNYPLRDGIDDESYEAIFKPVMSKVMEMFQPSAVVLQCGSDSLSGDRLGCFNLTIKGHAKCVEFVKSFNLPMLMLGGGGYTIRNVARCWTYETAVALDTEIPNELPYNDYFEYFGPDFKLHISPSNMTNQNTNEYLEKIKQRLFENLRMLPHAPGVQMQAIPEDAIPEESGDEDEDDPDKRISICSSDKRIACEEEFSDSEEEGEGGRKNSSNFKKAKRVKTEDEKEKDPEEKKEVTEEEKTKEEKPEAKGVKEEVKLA

SMILES | IC50 [1] [nM] | IC50 [2] [nM]
Cc1c(Cc2ccc(C(=O)NO)cc2)c2cc(F)ccc2n1CCN1CC[C@H](F)C1 [Compound 589, (S)-4-((5-fluoro-1-(2-(3-fluoropyrrolidin-1-yl)ethyl)-2-methyl-1H-indol-3-yl)methyl)-N-hydroxybenzamide] | 63 | 4640
Cc1c(Cc2ccc(C(=O)NO)cc2)c2ccccc2n1CCN1CCC(CO)C1 (stereo not shown) [Compound 586, N-hydroxy-4-((1-(2-(3-(hydroxymethyl)pyrrolidin-1-yl)ethyl)-2-methyl-1H-indol-3-yl)methyl)benzamide] | 16 | 2810
Cc1c(Cc2ccc(C(=O)NO)cc2)c2ccccc2n1CC1CCN(CC2(F)COC2)CC1 [Compound 609, 4-((1-((1-((3-Fluorooxetan-3-yl)methyl)piperidin-4-yl)methyl)-2-methyl-1H-indol-3-yl)methyl)-N-hydroxybenzamide] | 5 | 3630
Cc1c(Cc2ccc(C(=O)NO)cc2)c2cc(F)ccc2n1CCN1CCC(F)CC1 [Compound 590, 4-((5-Fluoro-1-(2-(4-fluoropiperidin-1-yl)ethyl)-2-methyl-1H-indol-3-yl)methyl)-N-hydroxybenzamide] | 49 | 6120
CCCc1c(Cc2ccc(C(=O)NO)cc2)c2ccccc2n1CC1CCN(CC(C)(C)O)CC1 [Compound 601, N-hydroxy-4-((1-((1-(2-hydroxy-2-methylpropyl)piperidin-4-yl)methyl)-2-propyl-1H-indol-3-yl)methyl)benzamide] | 98 | 5600
Cc1c(Cc2ccc(C(=O)NO)cc2)c2ccccc2n1CCN1CCC[C@H]1CO [Compound 199, (S)—N-hydroxy-4-((1-(2-(2-(hydroxymethyl)pyrrolidin-1-yl)ethyl)-2-methyl-1H-indol-3-yl)methyl)benzamide] | 4 | 1260
Cc1c(Cc2ccc(C(=O)NO)cc2)c2ccccc2n1CC1CCN(CC2(F)CCN(CC(C)(C)O)CC2)CC1 [Compound 613, 4-((1-((1-((4-fluoro-1-(2-hydroxy-2-methylpropyl)piperidin-4-yl)methyl)piperidin-4-yl)methyl)-2-methyl-1H-indol-3-yl)methyl)-N-hydroxybenzamide] | 69 | 6740
Cc1c(Cc2ccc(C(=O)NO)cc2)c2ccccc2n1CC1CCN(Cc2ccccc2F)CC1 [Compound 620, 4-((1-((1-(2-Fluorobenzyl)piperidin-4-yl)methyl)-2-methyl-1H-indol-3-yl)methyl)-N-hydroxybenzamide] | 306 | > 10000
Cc1c(Cc2ccc(C(=O)NO)cc2)c2ccccc2n1CC1CCN(CC2(F)CCNCC2)CC1 [Compound 611, 4-((1-((1-((4-fluoropiperidin-4-yl)methyl)piperidin-4-yl)methyl)-2-methyl-1H-indol-3-yl)methyl)-N-hydroxybenzamide] | 24 | 2930
CCCc1c(Cc2ccc(C(=O)NO)cc2)c2ccccc2n1CC1CCN(CC(C)(C)F)CC1 [Compound 602, 4-((1-((1-(2-fluoro-2-methylpropyl)piperidin-4-yl)methyl)-2-propyl-1H-indol-3-yl)methyl)-N-hydroxybenzamide] | 300 | > 10000
Cc1c(Cc2ccc(C(=O)NO)cc2)c2ccccc2n1CCN1CCCC(CO)C1 (stereo not shown) [Compound 594, N-hydroxy-4-((1-(2-(3-(hydroxymethyl)piperidin-1-yl)ethyl)-2-methyl-1H-indol-3-yl)methyl)benzamide] | 17 | 3140
Cc1c(Cc2ccc(C(=O)NO)cc2)c2ccccc2n1CC1CCN(Cc2cc(F)c(F)cc2F)CC1 [Compound 619, N-hydroxy-4-((2-methyl-1-((1-(2,4,5-trifluorobenzyl)piperidin-4-yl)methyl)-1H-indol-3-yl)methyl)benzamide] | 770 | > 10000
Cc1c(Cc2ccc(C(=O)NO)cc2)c2ccccc2n1CC1CCN(CC(C)(C)O)CC1 [Compound 608, N-hydroxy-4-((1-((1-(2-hydroxy-2-methylpropyl)piperidin-4-yl)methyl)-2-methyl-1H-indol-3-yl)methyl)benzamide] | 7 | 1070
Cc1c(Cc2ccc(C(=O)NO)cc2)c2ccccc2n1CCN1CCN(C(C)C)CC1 [Compound 196, N-hydroxy-4-((1-(2-(4-isopropylpiperazin-1-yl)ethyl)-2-methyl-1H-indol-3-yl)methyl)benzamide] | 6 | 1610
Cc1c(Cc2ccc(C(=O)NO)cc2)c2ccccc2n1CCN1CCCCC1 [Compound 585] | 84 | 7750
Cc1c(Cc2ccc(C(=O)NO)cc2)c2cc(F)ccc2n1CC1CCN(CC(C)(C)F)CC1 [Compound 588, 4-((5-Fluoro-1-((1-(2-fluoro-2-methylpropyl)piperidin-4-yl)methyl)-2-methyl-1H-indol-3-yl)methyl)-N-hydroxybenzamide] | 378 | 6730

Results, then the compound that gave them:

IC50 [1] [nM] | IC50 [2] [nM] | SMILES
334 | 6100 | CC(C)(F)CN1CCC(Cn2cc(C(O)c3ccc(C(=O)NO)cc3)c3cccnc32)CC1 (stereo not shown) [Compound 747, 4-((1-((1-(2-Fluoro-2-methylpropyl)piperidin-4-yl)methyl)-1H-pyrrolo[2,3-b]pyridin-3-yl)(hydroxy)methyl)-N-hydroxybenzamide]
107 | 5010 | CC(C)(F)CN1CCC(Cn2c(-c3ccncc3)c(Cc3ccc(C(=O)NO)cc3)c3ccccc32)CC1 [Compound 624, 4-((1-((1-(2-Fluoro-2-methylpropyl)piperidin-4-yl)methyl)-2-(pyridin-4-yl)-1H-indol-3-yl)methyl)-N-hydroxybenzamide]
92 | 8590 | Cc1c(Cc2ccc(C(=O)NO)cc2)c2ccccc2n1CC1CN(CC2(F)COC2)C1 [Compound 749, 4-((1-((1-((3-Fluorooxetan-3-yl)methyl)azetidin-3-yl)methyl)-2-methyl-1H-indol-3-yl)methyl)-N-hydroxybenzamide]
140 | 3880 | CC(C)(F)CN1CCC(Cn2cc(Cc3ccc(C(=O)NO)cc3)c3cccnc32)CC1 [Compound 748, 4-((1-((1-(2-Fluoro-2-methylpropyl)piperidin-4-yl)methyl)-1H-pyrrolo[2,3-b]pyridin-3-yl)methyl)-N-hydroxybenzamide]
115 | 7600 | Cc1c(Cc2ccc(C(=O)NO)cc2)c2ccccc2n1CCCN1CCN(CC(C)(C)F)CC1 [Compound 640, 4-((1-(3-(4-(2-Fluoro-2-methylpropyl)piperazin-1-yl)propyl)-2-methyl-1H-indol-3-yl)methyl)-N-hydroxybenzamide]
587 | > 10000 | CC(C)(F)CN1CCC(Cn2c(-c3cc(F)cc(F)c3)c(Cc3ccc(C(=O)NO)cc3)c3ccccc32)CC1 [Compound 626, 4-((2-(3,5-Difluorophenyl)-1-((1-(2-fluoro-2-methylpropyl)piperidin-4-yl)methyl)-1H-indol-3-yl)methyl)-N-hydroxybenzamide]
63 | 1790 | Cc1c(Cc2ccc(C(=O)NO)cc2)c2ccccc2n1CC1CCN(Cc2cccnc2)CC1 [Compound 632, N-hydroxy-4-((2-methyl-1-((1-(pyridin-3-ylmethyl)piperidin-4-yl)methyl)-1H-indol-3-yl)methyl)benzamide]
